Here are results for 22 molecules from US8232271B2 (priority 2008, dated 2012).

Series [1] has as its target T1, HCV polymerase (NS5B570n-Con1) (Hepatitis C virus genotype 1b, UniProt Q9WMX2).
T1 construct: contains a 21 amino acid deletion at the C-terminus relative to the full-length HCV polymerase; 6-histidine (N); made in house; host or cells: E. coli BL21(DE) pLysS, plasmid pET17b
The series can be described thus: HCV NS5B RNA polymerase activity assay. The series is classed as biochemical, HCV Con1 strain. The method, then: The enzymatic activity of HCV polymerase (NS5B570n-Con1) was measured as the incorporation of radiolabeled nucleotide monophosphates into acid insoluble RNA products. Unincorporated radiolabeled substrate was removed by filtration and scintillant was added to the washed and dried filter plate containing radiolabeled RNA product. The amount of RNA product generated by NS5B570-Con1 at the end of the reaction was directly proportional to the amount of light emitted by the scintillant.
The N-terminal 6-histidine tagged HCV polymerase, derived from HCV Con1 strain, genotype 1b (NS5B570n-Con1) contains a 21 amino acid deletion at the C-terminus relative to the full-length HCV polymerase and was purified from E. coli strain BL21(DE) pLysS. The construct, containing the coding sequence of HCV NS5B Con1 (GenBank accession number AJ242654) was inserted into the plasmid construct pET17b, downstream of a T7 promoter expression cassette and transformed into E. coli. A single colony was grown overnight as a starter culture and later used inoculate 10 L of LB media supplemented with 100 μg/mL ampicillin at 37° C. Protein expression was induced by the addition of 0.25 mM isopropyl-β-D-thiogalactopyranoside (IPTG) when optical density at […] of the culture was between 0.6 and 0.8 and cells were harvested after 16 to 18 h at 30° C. NS5B570n-Con1 was purified to homogeneity using a three-step protocol including subsequent column chromatography on Ni-NTA, SP-Sepharose HP and Superdex 75 resins.
Each 50 μl enzymatic reaction contained 20 nM RNA template derived from the complementary sequence of the Internal Ribosome Entry Site (cIRES), 20 nM NS5B570n-Con1 enzyme, 0.5 μCi of tritiated UTP (Perkin Elmer catalog no. TRK-412; specific activity: 30 to 60 Ci/mmol; stock solution concentration from 7.5×10^-5 M to 20.6×10^-6 M), 1 μM each ATP, CTP, and GTP, 40 mM Tris-HCl pH 8.0, 40 mM NaCl, 4 mM DTT (dithiothreitol), 4 mM MgCl2, and 5 μl of compound serial diluted in DMSO. Reaction mixtures were assembled in 96-well filter plates (cat #MADVN0B, Millipore Co.) and incubated for 2 h at 30° C. Reactions were stopped by addition of 10% final (v/v) trichloroacetic acid and incubated for 40 min at 4° C. Reactions were filtered, washed with 8 reaction volumes of 10% (v/v) trichloroacetic acetic acid, 4 reaction volumes of 70% (v/v) ethanol, air dried, and 25 μl of scintillant (Microscint 20, Perkin-Elmer) was added to each reaction well.
The amount of light emitted from the scintillant was converted to counts per minute (CPM) on a Topcount® plate reader (Perkin-Elmer, Energy Range: Low, Efficiency Mode: Normal, Count Time: 1 min, Background Subtract: none, Cross talk reduction: Off).
Data was analyzed in Excel® (Microsoft®) and ActivityBase® (Idbs®). The reaction in the absence of enzyme was used to determine the background signal, which was subtracted from the enzymatic reactions. Positive control reactions were performed in the absence of compound, from which the background corrected activity was set as 100% polymerase activity. All data was expressed as a percentage of the positive control. The compound concentration at which the enzyme-catalyzed rate of RNA synthesis was reduced by 50% (IC50) was calculated by fitting
[formula] equation (i) to the data. where “Y” corresponds to the relative enzyme activity (in %), “% Min” is the residual relative activity at saturating compound concentration, “% Max” is the relative maximum enzymatic activity, “X” corresponds to the compound concentration, and “S” is the Hill coefficient (or slope).

Series [2] deals with HCV replicon cells (2209-23). The series can be described thus: HCV replicon assay (Renilla luciferase reporter). The settings on record: Hepatitis C virus, 72 h; three days incubation. The series is classed as cell-based, HCV genotype 1b. On the technique in general: Replicon systems follow genome replication, usually without infectious particles.
The nature of a further series: in vitro. The settings on record: human.
The test system of a further series is HCV. Particulars: monotherapy; cited from earlier work.

Usually IC50 stands for the concentration needed to halve the response being measured. What is called melting point is the temperature, or range, at which the solid turns liquid. Molecule `COc1cc(CN2CCCS2(=O)=O)c(-c2ccc[nH]c2=O)cc1C(C)(C)C` [Compound I-21, 3-[5-tert-Butyl-2-(1,1-dioxo-1λ^6-isothiazolidin-2-ylmethyl)-4-methoxy-phenyl]-1H-pyridin-2-one] displayed a melting point of 109.4 to 126.9 °C. In series [1], this molecule yielded an IC50 of 17 nM. For the same molecule, it took 168 nM to reach half-maximal inhibition in series [2] (IC50).

Turning to `COc1cc(CNC(=O)[C@H]2CC[C@H](NS(C)(=O)=O)C2)c(-c2ccc[nH]c2=O)cc1C(C)(C)C` [Compound I-81, (1S,3S)-3-Methanesulfonylamino-cyclopentanecarboxylic acid 4-tert-butyl-5-methoxy-2-(2-oxo-1,2-dihydro-pyridin-3-yl)-benzylamide], the melting point fell in the range of 158 to 160 °C. Also, in series [1], the IC50 is 22 nM. Moreover, in series [2], 238 nM corresponded to half-maximal inhibition (IC50).

In turn, `COc1cc(CNC(=O)c2cccc(NS(C)(=O)=O)c2)c(-c2ccc[nH]c2=O)cc1C(C)(C)C` [Compound I-63] displayed a melting point of 259 to 260 °C. Further, 12 nM corresponded to half-maximal inhibition in series [1] (IC50). The IC50 in series [2] came out at 34 nM. The same molecule showed a CC50 in “in vitro” of 43700 nM.

The molecule `COc1cc(CN(c2ccccc2)S(C)(=O)=O)c(-c2ccc[nH]c2=O)cc1C(C)(C)C` [Compound I-34] registered a melting point of 226 to 227 °C. This molecule returned an IC50 in series [1] of 13 nM. In series [2], this molecule registered an IC50 of 936 nM. This molecule also had a CC50 in the series “in vitro” of 44200 nM.

As for `NC(=O)c1ncn([C@@H]2O[C@H](CO)[C@@H](O)[C@H]2O)n1` [ribavirin, 1-((2R,3R,4S,5R)-3,4-Dihydroxy-5-hydroxymethyl-tetrahydro-furan-2-yl)-1H-[1,2,4]triazole-3-carboxylic acid amide], in the series on HCV, the “effect on serum levels of HCV-RNA” value was “does not lower serum levels of HCV-RNA” and the “patients with serum amino transferase levels reduced to normal” value was 40%.

As for `COc1cc(CNC(=O)c2ccc(O)cc2)c(-c2ccc[nH]c2=O)cc1C(C)(C)C` [Compound I-38, N-[4-tert-Butyl-5-methoxy-2-(2-oxo-1,2-dihydro-pyridin-3-yl)-benzyl]-4-hydroxy-benzamide], the melting point was in the range of 205 to 210 °C. In series [1], this molecule returned an IC50 of 16 nM. In series [2], this molecule came in with an IC50 of 310 nM. Also, the CC50 in “in vitro” was 92900 nM.

With `CCOC(=O)[C@H]1CCC(=O)N1Cc1cc(OC)c(C(C)(C)C)cc1-c1ccc[nH]c1=O` [Compound I-70, (R)-1-[4-tert-Butyl-5-methoxy-2-(2-oxo-1,2-dihydro-pyridin-3-yl)-benzyl]-5-oxo-pyrrolidine-2-carboxylic acid ethyl ester], the melting point is 92 to 95 °C. Moreover, the midpoint of inhibition in series [1], the IC50, lay at 70 nM.

In turn, `COc1cc(CN2Cc3ccc(NS(C)(=O)=O)cc3C2=O)c(-c2ccc[nH]c2=O)cc1C(C)(C)C` [Compound I-92] returned a melting point of 173 to 175 °C. Further, half-maximal inhibition in series [1] (IC50) was put at 8 nM.

In the case of `COc1cc(C(=O)N(C)Cc2ccc(F)cc2)c(-c2ccc[nH]c2=O)cc1C(C)(C)C` [Compound I-77], the melting point lay within 218 to 220 °C. Further, the IC50 in series [1] is 611 nM.

Consider `COc1cc(CNC(=O)c2ccc(N)cc2)c(-c2ccc[nH]c2=O)cc1C(C)(C)C` [Compound I-42, 4-Amino-N-[4-tert-butyl-5-methoxy-2-(2-oxo-1,2-dihydro-pyridin-3-yl)-benzyl]-benzamide], for which the melting point fell in the range of 165 to 167 °C. Further, the IC50 in series [1] came to 36 nM.

`COc1cc(C(=O)N2CCC(F)(F)CC2)c(-c2ccc[nH]c2=O)cc1C(C)(C)C` [Compound I-62] had a melting point of 223 to 224 °C. In series [1], this molecule registered an IC50 of 955 nM.

Take `CCC1(CC)C(=O)C=CN(Cc2cc(OC)c(C(C)(C)C)cc2-c2ccc[nH]c2=O)C1=O` [Compound I-39]: the melting point is 282 to 284 °C. Moreover, the midpoint of inhibition in series [1], the IC50, lay at 159 nM.

`COc1cc(CCO)c(-c2ccc[nH]c2=O)cc1C(C)(C)C` [Compound I-5, 3-[5-tert-Butyl-2-(2-hydroxy-ethyl)-4-methoxy-phenyl]-1H-pyridin-2-one] registered a melting point of 231.8 to 233.7 °C. Further, inhibition in series [1] was half-maximal at 1580 nM (IC50).

Regarding `CC(=O)Nc1ccc(C(C)(C)C)cc1-c1ccc[nH]c1=O` [Compound I-8, N-[4-tert-butyl-2-(2-oxo-1,2-dihydro-pyridin-3-yl)-phenyl]-acetamide], the melting point lay within 259 to 260 °C. This molecule also yielded an IC50 in series [1] of 8560 nM.

For `COc1cc(C(=O)N2CCN(C(C)=O)CC2)c(-c2ccc[nH]c2=O)cc1C(C)(C)C` [Compound I-46], the melting point is 206 to 208 °C. Further, the IC50 in series [1] is 615 nM.

With `COc1cc(Cn2c(=O)n(C)c3ccccc32)c(-c2ccc[nH]c2=O)cc1C(C)(C)C` [Compound I-69, 1-[4-tert-Butyl-5-methoxy-2-(2-oxo-1,2-dihydro-pyridin-3-yl)-benzyl]-3-methyl-1,3-dihydro-benzoimidazol-2-one], the melting point lay in the range of 140 to 142 °C. In addition, in series [1], the IC50 worked out at 34 nM.

Molecule `COc1cc(C(=O)N2CC(O)C2)c(-c2ccc[nH]c2=O)cc1C(C)(C)C` [Compound I-68] yielded a melting point of 236 to 238 °C. Further, in series [1], the IC50 is 211 nM.

Molecule `COc1cc(C(=O)N2CCC(C#N)CC2)c(-c2ccc[nH]c2=O)cc1C(C)(C)C` [Compound I-56, 1-[4-tert-Butyl-5-methoxy-2-(2-oxo-1,2-dihydro-pyridin-3-yl)-benzoyl]-piperidine-4-carbonitrite] came in with a melting point of 213 to 215 °C. Half-maximal inhibition in series [1] (IC50) required 432 nM.

`COCCN(C)C(=O)c1cc(OC)c(C(C)(C)C)cc1-c1ccc[nH]c1=O` [Compound I-47] showed a melting point of 160 to 162 °C. The IC50 in series [1] was found to be 1510 nM.

`COc1cc(CNC(=O)C2CCCC(NS(C)(=O)=O)C2)c(-c2ccc[nH]c2=O)cc1C(C)(C)C` (stereo not shown) [Compound I-82] gave a melting point of 162 to 164 °C. The molecule also had an IC50 in series [1] of 30 nM.

For the molecule `COc1cc(C(C)NS(C)(=O)=O)c(-c2ccc[nH]c2=O)cc1C(C)(C)C` (stereo not shown) [Compound I-52, N-{1-[4-tert-butyl-5-methoxy-2-(2-oxo-1,2-dihydro-pyridin-3-yl)-phenyl]-ethyl}-methanesulfonamide], the melting point fell in the range of 284 to 286 °C. In series [1], this molecule displayed an IC50 of 654 nM.

Regarding `COCCN1CCN(C(=O)c2cc(OC)c(C(C)(C)C)cc2-c2ccc[nH]c2=O)CC1` [Compound I-67], the melting point is 179 to 181 °C. Also, the IC50 in series [1] came out at 3690 nM.
